# What was measured:
# C. muridarum = conditions: upper reproductive tract epithelial cell line; cited from earlier work
# polyclonal T cell lines = experiment: Culture of Chlamydia-specific polyclonal T cell lines with TGFβ1, IL-13 in supernatant after anti-CD3 activation; assay type: cell-based, mouse
# Procedure: FIG. 9 is a histogram depicting polyclonal T cell lines with fading IL-13 production cultured as per usual protocol and, in parallel, the usual protocol plus 10 ng/ml TGFβ1. At the end of one week the T cell lines were activated with immobilized anti-CD3 and IL-13 levels measured in culture supernatant. […] It was also noted that expansions in TGFβ1 conditions yielded˜50% more cells per well.
# Conventional multifunction Chlamydia-specific Th1 clone 4uvmo-3 was previously described (Jayarapu et al., 2009, Infect Immun 77:4469-4479). For the new B-cell APC-derived T cells C57BL/6 mice were treated with 2.5 mg of medroxyprogesterone (Pfizer) delivered subcutaneously, then infected 7 days later with 5×10^4 IFU C. muridarum. Mice that cleared infection, >6 weeks post-infection, were used as the source of immune B and T cells. Initial Chlamydia-specific immune-B-cell-derived polyclonal T cell populations and clones were derived as follows. Splenocytes were harvested from immune mice. Immune B cells were purified from a portion of those splenocytes by “untouched” magnetic bead separation (Miltenyi Biotech). Immune B cells were pulsed with UV-MoPn (3.5×10^6 IFU equivalents per 7.5×10^5 B cells suspended at 7.5×10^6/ml; ˜5 IFU/cell) or soluble antigen (7.5 ul per 7.5×10^5 B cells suspended at 7.5×10^6/ml) for 1 h at 37° C. Antigen-pulsed immune B cells were transferred to 7.5 cc of “RPMI complete media”, pelleted, media containing antigen removed, then washed two more times with 7.5 cc of media (˜400,000-fold) to eliminate all non-cell bound or internalized Chlamydia antigen; the purpose of extended washing was to ensure that antigen presentation was limited to immune B cells. Primary stimulation wells were setup with 2.5×10^6 immune splenocytes plus 7.5×10^5 antigen-pulsed immune B cells in 0.75 ml “RPMI complete media” supplemented with recombinant cytokines and conditioned media as previously described (Johnson et al., 2014, Immunology 142:248-257); later T cell derivations during the course of the project included addition of 5 ng/ml recombinant murine TGFβ1 to the media. Limiting dilution cloning was done in media supplemented with recombinant cytokines/conditioned media with 10-20 ng/ml TGFβ1. Re-stimulation/maintenance of T cell clones was done weekly in 48-well plates by adding 100-200 k T cell clone cells to 1.5×10^6 irradiated naive splenocytes and 7.5×10^5 irradiated relevant-antigen-pulsed/washed immune B cells as feeders in media supplemented with recombinant cytokines/conditioned media including 2.5-10 ng/ml TGFβ1. Recombinant mouse cytokines were purchased from the same vendor (R&D Systems; Minneapolis, Minn.) except for TGFP1 (Ebioscience, San Diego, Calif.). […]
Substance,effect on C. muridarum replication (C. muridarum),"IL-13 production after one week of culture (polyclonal T cell lines; 10 ng/ml TGFβ1, lines with fading IL-13 production, anti-CD3 activation)",more cells per well in expansions (polyclonal T cell lines; TGFβ1 conditions versus usual protocol) [%],durable IL-13 production with increasing passage number (polyclonal T cell lines; immune-B-cell-APC-derived polyclonal T cell lines),IL-13 production (polyclonal T cell lines; immune-splenocyte-APC-derived T cell lines)
IL-13: Th2 cytokine,modestly enhances C. muridarum replication,,,,
TGFβ1: recombinant murine TGFβ1,,With the exception of B2 all the lines made more IL-13,~50,required addition of TGFβ1 to the media,did not result in IL-13 production

# Source: patent US20220146500A1, “COMPOSITIONS AND METHODS FOR ENHANCING MUCOSAL IMMUNITY” (Yale University, priority 2019, published 2022)
